In patent publication US4585861A, “1,2,4-triazine derivatives” (Eli Lilly and Company, priority 1985, dated 1986):
Counter-ions that a name gives are not always drawn.

Key:
GABA receptor = experiment: In vitro activation of GABA binding ([3H]GABA, Triton X-100 treated membrane protein); settings: average of one or more tests, read-out: SC50 GABA (nanomolar concentration producing a 50% increase in binding)
Procedure: (§1) The novel compounds of this invention were examined for their in vitro ability to activate GABA and benzodiazepine (BZ) binding. To measure the effect of a compound on GABA binding, Triton X-100 (octylphenoxy polyethoxyethanol, Rohm and Haas Co.) treated membrane protein was incubated in the presence of the compound and [^3 H]GABA as detailed by Horng and Wong, J. Neurochemistry, 32 (5), 1379 (1979). To examine BZ binding, H-flunirazepam and the compounds were incubated with native membrane protein as reported by Wong, et al, Brain Res. Bull., 5 (Suppl. 2), 853 (1980). The results in Table 1 are the nanomolar concentrations of compounds (by Example No.) which produced a 50 percent increase (SC50) in GABA or BZ binding. Each result is the average of one or more tests.

benzodiazepine receptor = experiment: In vitro activation of benzodiazepine (BZ) binding (flunirazepam, native membrane protein); settings: average of one or more tests, read-out: SC50 BZ (nanomolar concentration producing a 50% increase in binding)
Procedure: as §1

[1] = Metrazole Induced Convulsion Inhibition Assay; format: in vivo, Cox standard strain albino male mice; settings: Mus musculus
Procedure: (§2) In this assay, a compound to be tested was suspended in acacia (5%) and administered by gavage to each of three Cox standard strain albino male mice (18-24 grams) at the dose level being investigated. One hour after the oral administration, a water solution of metrazole (pentylenetetrazole) was administered by the intraperitoneal route to each mouse at a dose of 110 mg./kg. […] A score of 0 was assigned to a mouse not showing any signs of convulsant activity; a score of 1 was given to mice developing clonic convulsions; a score of 2 was given to mice showing flexor tonic convulsions; a score of 3 was given to mice showing extensor tonic convulsions; and a score of 4 was given to mice that died within the one hour. The scores of the three mice were totalled for each compound and dose level. The scores can range from 0 to 12; a score of 6 or less was interpreted as indicative of an active compound at that dose level. Values reported in Table 2 below are the minimum oral dose levels (mg./kg.) where activity as defined above was observed.

[2] = Electroshock Induced Convulsion Inhibition Assay; format: in vivo, Cox standard strain albino male mice; settings: Mus musculus
Procedure: as §2
The drug administration and test conditions used in this assay were similar to those used in the metrazole induced convulsion inhibition assay above except that a 0.1 second, 50 milliampere electroshock through corneal electrodes induced the convulsion instead of metrazole. The animals were examined and evaluated immediately after the electroshock and were scored as before. The results in Table 2 are expressed as the lowest dose of each compound tested which was active as previously defined. For comparison, 18 milliamperes was usually sufficient to produce extensor tonic convulsions in about half of the control animals; at 50 milliamperes, almost all control animals died. Diazepam was active at about 1 mg./kg.

[3] = Appetite Suppression Assay; format: in vivo, Cox standard strain albino male mice; settings: Mus musculus
Procedure: In this test, groups of three Cox standard strain albino male mice were weighed (18-24 grams) and then fasted overnight (16-18 hours). The mice were reweighed and then given the test compound in a suspension of acacia (5%) by gavage. Thirty minutes after oral administration, the mice were allowed to eat freely for one hour. After the eating period, the mice were weighed once more. The percent of weight gained (from the time the mice were given the test compound to after the feeding period) compared to weight lost during the fast period was calculated. The non-drug treated control animals gained back 35-55% of the weight lost on fasting. Any compound at the dose level tested which produced a weight gain of less than 10% was considered to be active. The results in Table 2 report the lowest dose level in which there was activity for each compound tested. Dextroamphetamine sulfate is active in this system at about 2.5 mg./kg.

[4] = Mouse Writhing Inhibition Assay; format: in vivo, Cox standard strain albino male mice
Procedure: Writhing, which is characterized by contraction of the abdominal musculature, extension of the hindlegs, and rotation of the trunk, was induced in Cox standard strain albino male mice. The mice, weighing 18-24 grams, were fasted overnight and given the test compound by gavage in an acacia suspension (5%) 60 minutes before writhing was induced by the intraperitoneal administration of 55 mg./kg. of acetic acid (0.55 percent). Each treatment group consisted of 3 mice. The total number of writhes for the treatment group was determined during a 5-minute observation starting 5 minutes after acetic acid administration.

[5] = oral gavage, 1 h before metrazole 110 mg./kg. i.p., active = total score of 6 or less (3 mice, range 0-12), read-out: Minimum active oral dose, Metrazole
[6] = oral, 0.1 second, 50 milliampere corneal electroshock, active = total score of 6 or less, read-out: Minimum active oral dose, Electro-Shock
[7] = oral gavage 30 min before feeding, active = weight gain of less than 10% of weight lost on fasting, read-out: Minimum active oral dose, Appetite Suppression
[8] = oral gavage 60 min before acetic acid 55 mg./kg. i.p., active = less than ten writhes, read-out: Minimum active oral dose, Mouse Writhing

Structure (SMILES) | EC50 (GABA receptor) | EC50 (benzodiazepine receptor) | minimal effective dose [1, 5] | minimal effective dose [2, 6] | minimal effective dose [3, 7] | minimal effective dose [4, 8] | other results
CC(=O)OC1CCCN(c2nnc(-c3ccc(C)cc3)c(-c3ccc(C)cc3)n2)C1 (centres unmarked) [Example 24, 1-[5,6-bis(4-methylphenyl)-1,2,4-triazine-3-yl]-3-piperidinol, acetate (ester)] | 160 nM | 180 nM | > 200 mg/kg | > 200 mg/kg | > 200 mg/kg | > 200 mg/kg | –
Cc1ccc(-c2nnc(N3CCC(C)CC3)nc2-c2ccc(C)cc2)cc1 [Example 25, 5,6-bis(4-methylphenyl)-3-(4-methyl-1-piperidinyl)-1,2,4-triazine] | – | – | > 200 mg/kg | > 200 mg/kg | 50 mg/kg | > 200 mg/kg | –
CC(=O)OC1CCN(c2nnc(-c3ccc(C)cc3)c(-c3ccc(C)cc3)n2)C1 (centres unmarked) [Example 19, 1-[5,6-bis(4-methylphenyl)-1,2,4-triazin-3-yl]-3-pyrrolidinol, acetate (ester)] | 43 nM | 60 nM | – | – | – | – | –
Cc1ccc(-c2ncc(N3CCC(O)CC3)nc2-c2ccc(C)cc2)cc1 [Example 42, 1-[5,6-bis(4-methylphenyl)pyrazin-2-yl]-4-piperidinol] | 1200 nM | 400 nM | 12.5 mg/kg | 50 mg/kg | 12.5 mg/kg | 12.5 mg/kg | –
CC(=O)OC1CCN(c2nnc(-c3ccccc3C)c(-c3ccccc3C)n2)CC1 [Example 14, 1-[5,6-bis(2-methylphenyl)-1,2,4-triazin-3-yl]-4-piperidinol, acetate (ester)] | 60 nM | 1000 nM | 200 mg/kg | > 200 mg/kg | 200 mg/kg | > 200 mg/kg | –
Cc1ccc(-c2nnc(N3CCC(O)CC3)nc2-c2ccc(C)cc2)cc1 [Example 7, 1-[5,6-bis(4-methylphenyl)-1,2,4-triazin-3-yl]-4-piperidinol] | 900 nM | 700 nM | 3.1 mg/kg | < 25 mg/kg | 3.1 mg/kg | 3.1 mg/kg | –
CCOC(=O)C1CCN(c2nnc(-c3ccc(C)cc3)c(-c3ccc(C)cc3)n2)CC1 [Example 35, 1-[5,6-bis(4-methylphenyl)-1,2,4-triazin-3-yl]-4-piperidinecarboxylic acid, ethyl ester] | 12 nM | 18 nM | > 200 mg/kg | > 200 mg/kg | > 200 mg/kg | > 200 mg/kg | –
Cc1ccc(-c2nnc(N3CCC(OC(=O)Oc4ccccc4)CC3)nc2-c2ccc(C)cc2)cc1 [Example 28, carbonic acid, 1-[5,6-bis(4-methylphenyl)-1,2,4-triazin-3-yl]-4-piperidinyl phenyl ester] | 160 nM | 650 nM | > 200 mg/kg | > 200 mg/kg | > 200 mg/kg | > 200 mg/kg | –
CNC(=O)OC1CCN(c2nnc(-c3ccc(C)cc3)c(-c3ccc(C)cc3)n2)CC1 [Example 30, 1-[5,6-bis(4-methylphenyl)-1,2,4-triazin-3-yl]-4-piperidinol, N-methyl carbamate (ester)] | 100 nM | 24 nM | – | – | – | – | –
Cc1ccc(-c2nnc(N3CCC(C(N)=O)CC3)nc2-c2ccc(C)cc2)cc1 [Example 36, 1-[5,6-bis(4-methylphenyl)-1,2,4-triazin-3-yl]-4-piperidinecarboxamide] | 800 nM | 8500 nM | – | – | – | – | –
Cc1ccc(-c2nnc(N3CCC(O)C3)nc2-c2ccc(C)cc2)cc1 (centres unmarked) [Example 18, 1-[5,6-bis(4-methylphenyl)-1,2,4-triazin-3-yl]-3-pyrrolidinol] | – | – | > 200 mg/kg | 200 mg/kg | 12.5 mg/kg | 200 mg/kg | –
CCc1ccc(-c2nnc(N3CCC(O)CC3)nc2-c2ccc(CC)cc2)cc1 [Example 8, 1-[5,6-bis(4-ethylphenyl)-1,2,4-triazin-3-yl]-4-piperidinol] | > 10000 nM | 3500 nM | – | – | – | – | –
C[C@H](N)Cc1ccccc1 [Dextroamphetamine sulfate, reference compound] | – | – | – | – | – | – | minimal effective dose ([3]; po, read-out: dose showing activity, appetite suppression (reference)): ~2.5 mg/kg
CC(=O)Oc1ccccc1C(=O)O [Aspirin, acetyl salicylic acid, reference compound] | – | – | – | – | – | – | minimal effective dose ([4]; po, read-out: dose showing activity, mouse writhing (reference)): 200 mg/kg
Cc1cccc(-c2nnc(N3CCC(O)CC3)nc2-c2cccc(C)c2)c1 [Example 10, 1-[5,6-bis(3-methylphenyl)-1,2,4-triazin-3-yl]-4-piperidinol] | – | > 10000 nM | – | – | – | – | –
CN1C(=O)CN=C(c2ccccc2)c2cc(Cl)ccc21 [Diazepam, reference compound] | – | – | – | – | – | – | minimal effective dose ([1]; po, read-out: dose showing activity, metrazole test (reference)): ~1 mg/kg; minimal effective dose ([2]; po, read-out: dose showing activity, electroshock test (reference)): ~1 mg/kg
Cc1ccc(-c2nnc(N3CCC(OC(=O)C(C)(C)C)CC3)nc2-c2ccc(C)cc2)cc1 [Example 16, 1-[5,6-bis(4-methylphenyl)-1,2,4-triazin-3-yl]-4-piperidinol, pivaloate (ester)] | 110 nM | 14 nM | – | – | – | – | –
Cc1ccc(-c2nnc(N3CCOCC3)nc2-c2ccc(C)cc2)cc1 [Example 22, 3-morpholino-5,6-bis(4-methylphenyl)-1,2,4-triazine] | 875 nM | 1140 nM | – | – | – | – | –
Cc1ccccc1-c1nnc(N2CCC(O)CC2)nc1-c1ccccc1C [Example 9, 1-[5,6-bis(2-methylphenyl)-1,2,4-triazin-3-yl]-4-piperidinol] | > 10000 nM | > 10000 nM | – | – | – | – | –
Cc1ccc(-c2nnc(N3CCC(OC=O)CC3)nc2-c2ccc(C)cc2)cc1 [Example 34, 1-[5,6-bis(4-methylphenyl)-1,2,4-triazin-3-yl]-4-piperidinol, formate (ester)] | 13 nM | 10 nM | – | – | – | – | –
CCOC1CCN(c2nnc(-c3ccc(C)cc3)c(-c3ccc(C)cc3)n2)CC1 [Example 27, 3-(4-ethoxy-1-piperidinyl)-5,6-bis(4-methylphenyl)-1,2,4-triazine] | 10 nM | 21 nM | – | – | – | – | –
OC1CCN(c2nnc(-c3ccc(Cl)cc3)c(-c3ccc(Cl)cc3)n2)CC1 [Example 11, 1-[5,6-bis(4-chlorophenyl)-1,2,4-triazin-3-yl]-4-piperidinol] | – | – | 12.5 mg/kg | > 25 mg/kg | 25 mg/kg | > 25 mg/kg | –
Cc1ccc(-c2nnc(N3CCC(=NO)CC3)nc2-c2ccc(C)cc2)cc1 [Example 40, 1-[5,6-bis(4-methylphenyl)-1,2,4-triazin-3-yl]-4-piperidinone, oxime] | 1300 nM | 1600 nM | – | – | – | – | –
Cc1ccc(-c2nnc(N3CCC(OC(=O)N(C)C)CC3)nc2-c2ccc(C)cc2)cc1 [Example 31] | 1 nM | 3 nM | – | – | – | – | –
Cc1ccc(-c2nnc(N3CCC(CO)CC3)nc2-c2ccc(C)cc2)cc1 [Example 37, 1-[5,6-bis(4-methylphenyl)-1,2,4-triazin-3-yl]-4-piperidinemethanol] | 160 nM | 520 nM | – | – | – | – | –
